# Measured values published in patent publication US11213495B2, “Method and composition for decreasing the psychotomimetic side effect and addictive disorder of ketamine” (NATIONAL HEALTH RESEARCH INSTITUTES, priority 2016, dated 2022).
# What was measured:
# Type in all cases: in vivo
# Male ICR mice [1] = test: Forced swimming test (FST) scored by time-sampling method; details: day 1 and 8, post hoc vs control
# Method: (§1) FST was conducted for two consecutive days. Mice were placed in a Plexiglas cylinder (33.5 cm height, 20 cm diameter) filled with 25±2° C. water to a height of 18-20 cm. For the first exposure, mice were placed in the water for 15 min (pre-test session) followed by […]. Twenty-four hours later (day 1 test session), various doses of test drug (at 0, 30 and 100 mg/kg) was administered 30 min prior to the ketamine (10 mg/kg) or saline. Then, the mice were tested 30 min after ketamine injection which placed in the water again for a 6 min session (test session), the first 2 minutes has elapsed. Immobility was assigned when no additional activity was observed other than that required to keep the head above the water.
# The acute and sustained effects of various doses of ketamine (3, 10, 15 mg/kg) and betaine (10, 20, 30 mg/kg) on FST were assessed on day 1 and 8, respectively (FIGS. 1A and 1B). […] There was no significant effect of test session or interaction.
# Male ICR mice [2] = test: Forced swim test (FST): duration of immobility, struggling and swimming
# Method: as §1
# This experiment included a control group and various doses of ketamine (3, 10, 15 mg/kg), betaine (10, 20, 30 mg/kg) and betaine (10, 20, 30 mg/kg) pretreatment prior to ketamine (fixed dose at 10 mg/kg). […] There was no significant effect of test session or interaction.
# Male ICR mice [3] = test: Emergence test
# Method: The emergence test was examined in a test box (35×35×30 cm) contained an aluminum cylinder (10 cm deep×6.5 cm diameter) located lengthwise along one wall, with the open end 10 cm from the corner. The test drug (0, 30 and 100 mg/kg) or ketamine (10 mg/kg) was administered 30 min prior to the test. Mice were placed into the cylinder and tested for 10 min and scored three behavioral parameters: the latency to leave the cylinder, the number of entries into the cylinder and the total time spent inside the cylinder.
# Male ICR mice [4] = test: Social interaction test
# Method: This protocol was modified from the original social interaction test (Lin et al. 2010; Qiao et al. 2001). The social interaction between pairs of mice was examined in an open-field box (35×35×30 cm) under normal room lighting. The paired mice were randomly assigned from different home cages with the same drug treatment. […] Five minutes later, each pair of unfamiliar mice was placed in the apparatus for 10 min and the total time that a pair spent in social interaction and specific social interaction behaviors (sniffing the partner, following, mounting, and crawling under or over the partner) were recorded by an observer who was blind to the drug treatments.
# Male ICR mice [5] = test: Novelty suppressed feeding test (NSF); details: 1 h prior to test, vs saline-treated mice
# Method: NSF test consisted of food-depriving mice overnight (24 hours). The test drug (10, 20 and 30 mg/kg), ketamine (10 mg/kg) or saline was administered 1 h prior to the test. At the time of testing, a single food pellet placed in the middle of a novel environment (a test box 40×40×40 cm). The latency to start feeding was used as a measure for depressive-like or anxiety-like behavior.
# Male ICR mice [6] = test: Forced swim test (FST): duration of immobility, struggling and swimming; details: for duration of struggling in FST: betaine 20 mg/kg prior to ketamine 10 mg/kg
# [7] = ketamine 15 mg/kg, day 7 retest session, vs control
# [8] = betaine 20 and 30 mg/kg, over both sessions
# [9] = betaine 30 mg/kg pretreatment prior to ketamine 10 mg/kg, day 1 test session
structure (smiles),measurement,setting,value
CNC1(c2ccccc2Cl)CCCCC1=O (racemic) [ketamine],count of immobility in FST,"Male ICR mice [1]; ketamine 3, 10 and 15 mg/kg",significantly decreased
same,duration of immobility in FST,"Male ICR mice [2]; ketamine 10 mg/kg, DMG experiment, tested 30 min after ketamine",significantly decreased
same,duration of struggling in FST,"Male ICR mice [2]; ketamine 15 mg/kg, day 1 test session, vs control",significantly increased
same,duration of struggling in FST,Male ICR mice [2]; [7],significantly increased
same,duration of swimming in FST,Male ICR mice [2]; [7],significantly increased
same,duration of immobility in FST,"Male ICR mice [2]; ketamine 15 mg/kg, day 7 retest session, vs vehicle control",significantly decreased
same,duration of struggling in FST,"Male ICR mice [2]; ketamine 15 mg/kg, over both sessions",significantly increased
same,duration of immobility in FST,"Male ICR mice [2]; ketamine 3, 10 and 15 mg/kg, day 1 test session, vs vehicle control",significantly reduced
same,duration of swimming in FST,"Male ICR mice [2]; ketamine 10 and 15 mg/kg, day 1 test session, vs control",significantly increased
same,duration of immobility in FST,"Male ICR mice [2]; ketamine 10 and 15 mg/kg, main effect over both sessions",significantly decreased
same,duration of swimming in FST,"Male ICR mice [2]; ketamine 10 and 15 mg/kg, over both sessions",significantly increased
same,total time spent inside the cylinder,"Male ICR mice [3]; ketamine 10 mg/kg, post hoc",significantly reduced
same,social interaction duration,Male ICR mice [4]; ketamine 30 mg/kg,reduction
same,latency to feed in the NSF,Male ICR mice [5]; ketamine 10 mg/kg,significantly reduced
C[N+](C)(C)CC(=O)O [betaine],count of immobility in FST,Male ICR mice [1]; betaine 20 and 30 mg/kg,significantly decreased
same,duration of struggling in FST,"Male ICR mice [6]; day 1 test session, vs control",significantly increased
same,duration of struggling in FST,Male ICR mice [6]; over both sessions,significantly increased
same,duration of swimming in FST,"Male ICR mice [6]; betaine 10, 20 and 30 mg/kg pretreatment prior to ketamine 10 mg/kg, day 1 test session, vs control",significantly increased
same,duration of swimming in FST,"Male ICR mice [6]; betaine 10, 20 and 30 mg/kg pretreatment prior to ketamine 10 mg/kg, over both sessions",significantly increased
same,duration of swimming in FST,Male ICR mice [6]; [8],significantly increased
same,duration of immobility in FST compared with ketamine (10 mg/kg) alone,Male ICR mice [2]; [9],significantly shorter duration of immobility
same,duration of swimming in FST compared with ketamine (10 mg/kg),Male ICR mice [2]; [9],longer duration of swimming
same,duration of immobility in FST compared with ketamine (10 mg/kg) alone,"Male ICR mice [2]; betaine 30 mg/kg pretreatment prior to ketamine 10 mg/kg, over both sessions",significantly shorter duration of immobility
same,duration of struggling in FST,"Male ICR mice [2]; betaine 30 mg/kg, day 7 retest session, vs control",significantly increased
same,duration of immobility in FST,"Male ICR mice [2]; betaine 10, 20 and 30 mg/kg pretreatment prior to ketamine 10 mg/kg, day 7 retest session, vs vehicle control",significantly decreased
same,duration of immobility in FST,"Male ICR mice [2]; betaine 10, 20 and 30 mg/kg pretreatment prior to ketamine 10 mg/kg, main effect over both sessions",significantly decreased
same,duration of immobility in FST,"Male ICR mice [2]; betaine 10, 20 and 30 mg/kg prior to ketamine 10 mg/kg, day 1 test session, vs vehicle control",significantly reduced
same,duration of swimming in FST,"Male ICR mice [2]; betaine 10, 20 and 30 mg/kg prior to ketamine 10 mg/kg, day 7 retest session, vs control",significantly increased
same,duration of swimming in FST,"Male ICR mice [2]; betaine 20 and 30 mg/kg, day 1 test session, vs control",significantly increased
same,duration of immobility in FST,"Male ICR mice [2]; betaine 20 and 30 mg/kg, day 1 test session, vs vehicle control",significantly reduced
same,duration of immobility in FST,"Male ICR mice [2]; betaine 20 and 30 mg/kg, day 7 retest session, vs vehicle control",significantly decreased
same,duration of immobility in FST,"Male ICR mice [2]; betaine 20 and 30 mg/kg, main effect over both sessions",significantly decreased
same,duration of struggling in FST,Male ICR mice [2]; [8],significantly increased
same,anxiolytic effect in the emergence test,Male ICR mice [3]; betaine 30 and 100 mg/kg,did not show anxiolytic effect
same,reduction in social interaction duration induced by ketamine,Male ICR mice [4]; betaine 30 and 100 mg/kg i.p. prior to ketamine 30 mg/kg,significantly attenuated
same,latency to feed in the NSF,Male ICR mice [5]; betaine 30 mg/kg i.p.,significantly reduced
